We go through 3 molecules from patent US12275731B2, “Azaindole inhibitors of wild-type and mutant forms of LRRK2” (DANA-FARBER CANCER INSTITUTE, INC., priority 2018, dated 2025).

SMILES strings stand for the structures.

What all share (experiment): KinomeScan profiling
Holding throughout (type): binding

One assay concerns the target T1, AKT3 (Homo sapiens, UniProt Q9Y243).
T1 construct: purchased KinomeScan®
Particulars: AKT3, 1 μM; read-out: % control. The gist of the method: (§1)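 Compounds were screened at 1 μM in DMSO across a 468-kinase KinomeScan panel. Binding was expressed as % control, scaled between a positive control (0%) and DMSO (100%) using luminescence signal. A value under 35% counted as active.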

For the next assay, the target named is CSNK1G2 (Homo sapiens, UniProt P78368). Particulars: CSNK1G2, 1 μM; read-out: % control. The gist of the method: as §1
The target in the next assay is T2, FLT3(N841I) (Homo sapiens, UniProt P36888, N841I).
T2 sequence (P36888 27-993 N841I): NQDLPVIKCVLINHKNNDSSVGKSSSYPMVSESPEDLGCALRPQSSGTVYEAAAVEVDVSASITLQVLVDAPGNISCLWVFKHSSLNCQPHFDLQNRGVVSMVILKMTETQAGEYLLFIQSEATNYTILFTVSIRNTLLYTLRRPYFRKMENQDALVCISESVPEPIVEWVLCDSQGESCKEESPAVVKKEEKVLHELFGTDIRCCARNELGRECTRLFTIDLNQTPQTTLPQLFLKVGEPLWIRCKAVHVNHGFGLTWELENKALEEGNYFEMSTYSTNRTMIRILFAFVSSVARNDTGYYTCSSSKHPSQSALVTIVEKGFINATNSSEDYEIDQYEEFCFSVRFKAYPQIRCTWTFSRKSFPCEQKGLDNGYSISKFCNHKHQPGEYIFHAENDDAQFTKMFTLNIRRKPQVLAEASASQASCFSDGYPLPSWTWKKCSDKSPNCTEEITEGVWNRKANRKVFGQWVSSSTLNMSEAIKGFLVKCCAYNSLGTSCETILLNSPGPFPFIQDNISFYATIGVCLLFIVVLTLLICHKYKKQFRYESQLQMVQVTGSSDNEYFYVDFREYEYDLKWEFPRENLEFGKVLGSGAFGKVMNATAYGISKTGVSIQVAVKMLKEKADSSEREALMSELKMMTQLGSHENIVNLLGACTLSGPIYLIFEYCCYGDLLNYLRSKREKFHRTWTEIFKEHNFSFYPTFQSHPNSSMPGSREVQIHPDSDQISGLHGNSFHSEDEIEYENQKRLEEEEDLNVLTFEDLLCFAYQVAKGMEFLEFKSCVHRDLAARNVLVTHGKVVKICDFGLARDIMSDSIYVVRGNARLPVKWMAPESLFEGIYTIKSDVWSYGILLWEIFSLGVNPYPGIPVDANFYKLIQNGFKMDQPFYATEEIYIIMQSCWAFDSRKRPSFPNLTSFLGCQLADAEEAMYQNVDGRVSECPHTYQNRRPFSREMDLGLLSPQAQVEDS
The following applies: read-out: % control. The gist of the method:
as §1

In the next assay the target is T3, KIT-autoinhibited (Homo sapiens, UniProt P10721).
T3 construct: purchased KinomeScan®
The following applies: read-out: % control. The gist of the method: as §1

The target in another assay is LYN (Homo sapiens, UniProt P07948). The following applies: read-out: % control. The gist of the method: as §1
Another assay concerns the target MARK3 (Homo sapiens, UniProt P27448). Particulars: MARK3, 1 μM; read-out: % control. The gist of the method: as §1
The next assay has as its target T4, PIK3CG (Homo sapiens, UniProt P48736).
T4 construct: purchased KinomeScan® (panel service)
The following applies: read-out: % control. The gist of the method:
as §1

Another assay has as its target ROCK2 (Homo sapiens, UniProt O75116). Particulars: ROCK2, 1 μM; read-out: % control. The gist of the method: as §1
Assay [1] concerns the target T5, RPS6KA4(Kin.Dom.1-N-terminal) (Homo sapiens, UniProt O75676).
T5 construct: RPS6KA4(Kin.Dom.1-N-terminal)
T5 sequence (O75676 33-301 limits assumed): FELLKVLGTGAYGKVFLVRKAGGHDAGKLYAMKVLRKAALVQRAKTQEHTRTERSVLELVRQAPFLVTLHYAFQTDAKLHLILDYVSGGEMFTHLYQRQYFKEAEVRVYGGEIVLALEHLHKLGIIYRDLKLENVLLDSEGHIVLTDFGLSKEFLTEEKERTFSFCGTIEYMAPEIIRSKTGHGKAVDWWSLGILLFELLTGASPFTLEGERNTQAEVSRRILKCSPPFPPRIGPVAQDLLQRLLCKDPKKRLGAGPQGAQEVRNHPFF
The following applies: read-out: % control. The procedure, abridged: as §1

The target of assay [2] is T6, RSK3(Kin.Dom.2-C-terminal) (Homo sapiens, UniProt Q15349).
T6 construct: RSK3(Kin.Dom.2-C-terminal)
Particulars: read-out: % control. The gist of the method: as §1

Another assay addresses T7, STK33 (Homo sapiens, UniProt Q9BYT3).
T7 construct: purchased KinomeScan® (panel service)
Particulars: STK33, 1 μM; read-out: % control. The gist of the method:
as §1

Another assay concerns the target T8, TGFBR1 (Homo sapiens, UniProt P36897).
T8 sequence (P36897 34-503): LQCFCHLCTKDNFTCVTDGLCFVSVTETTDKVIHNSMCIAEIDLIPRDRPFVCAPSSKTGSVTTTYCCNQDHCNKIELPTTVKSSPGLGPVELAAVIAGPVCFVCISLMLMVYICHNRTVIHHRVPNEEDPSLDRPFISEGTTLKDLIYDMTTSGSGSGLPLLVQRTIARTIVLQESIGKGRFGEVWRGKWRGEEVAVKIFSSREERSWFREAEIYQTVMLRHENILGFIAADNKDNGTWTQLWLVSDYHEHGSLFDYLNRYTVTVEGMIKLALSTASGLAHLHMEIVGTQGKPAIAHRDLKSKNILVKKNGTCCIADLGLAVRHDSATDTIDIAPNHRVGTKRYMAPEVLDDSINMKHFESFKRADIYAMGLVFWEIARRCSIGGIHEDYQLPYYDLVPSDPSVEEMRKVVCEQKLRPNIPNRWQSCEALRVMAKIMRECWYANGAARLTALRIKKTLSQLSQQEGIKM
The following applies: TGFBR1, 1 μM; read-out: % control. The gist of the method:
as §1

A further assay deals with WNK4 (Homo sapiens, UniProt Q96J92). The following applies: WNK4, 1 μM; read-out: % control. The procedure, abridged: as §1

Sequence of CSNK1G2 (P78368 whole entry): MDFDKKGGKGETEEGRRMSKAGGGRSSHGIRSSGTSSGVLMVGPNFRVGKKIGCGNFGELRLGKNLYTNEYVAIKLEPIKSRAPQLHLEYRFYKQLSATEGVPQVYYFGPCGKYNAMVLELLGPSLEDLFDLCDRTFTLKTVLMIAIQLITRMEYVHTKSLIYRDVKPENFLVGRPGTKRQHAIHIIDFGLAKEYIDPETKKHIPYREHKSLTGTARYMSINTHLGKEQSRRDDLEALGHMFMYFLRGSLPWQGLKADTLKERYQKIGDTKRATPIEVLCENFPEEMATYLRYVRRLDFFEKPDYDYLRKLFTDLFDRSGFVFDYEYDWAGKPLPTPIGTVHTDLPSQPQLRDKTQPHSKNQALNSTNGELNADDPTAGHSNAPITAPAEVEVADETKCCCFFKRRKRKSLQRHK
T4 sequence (P48736 whole entry): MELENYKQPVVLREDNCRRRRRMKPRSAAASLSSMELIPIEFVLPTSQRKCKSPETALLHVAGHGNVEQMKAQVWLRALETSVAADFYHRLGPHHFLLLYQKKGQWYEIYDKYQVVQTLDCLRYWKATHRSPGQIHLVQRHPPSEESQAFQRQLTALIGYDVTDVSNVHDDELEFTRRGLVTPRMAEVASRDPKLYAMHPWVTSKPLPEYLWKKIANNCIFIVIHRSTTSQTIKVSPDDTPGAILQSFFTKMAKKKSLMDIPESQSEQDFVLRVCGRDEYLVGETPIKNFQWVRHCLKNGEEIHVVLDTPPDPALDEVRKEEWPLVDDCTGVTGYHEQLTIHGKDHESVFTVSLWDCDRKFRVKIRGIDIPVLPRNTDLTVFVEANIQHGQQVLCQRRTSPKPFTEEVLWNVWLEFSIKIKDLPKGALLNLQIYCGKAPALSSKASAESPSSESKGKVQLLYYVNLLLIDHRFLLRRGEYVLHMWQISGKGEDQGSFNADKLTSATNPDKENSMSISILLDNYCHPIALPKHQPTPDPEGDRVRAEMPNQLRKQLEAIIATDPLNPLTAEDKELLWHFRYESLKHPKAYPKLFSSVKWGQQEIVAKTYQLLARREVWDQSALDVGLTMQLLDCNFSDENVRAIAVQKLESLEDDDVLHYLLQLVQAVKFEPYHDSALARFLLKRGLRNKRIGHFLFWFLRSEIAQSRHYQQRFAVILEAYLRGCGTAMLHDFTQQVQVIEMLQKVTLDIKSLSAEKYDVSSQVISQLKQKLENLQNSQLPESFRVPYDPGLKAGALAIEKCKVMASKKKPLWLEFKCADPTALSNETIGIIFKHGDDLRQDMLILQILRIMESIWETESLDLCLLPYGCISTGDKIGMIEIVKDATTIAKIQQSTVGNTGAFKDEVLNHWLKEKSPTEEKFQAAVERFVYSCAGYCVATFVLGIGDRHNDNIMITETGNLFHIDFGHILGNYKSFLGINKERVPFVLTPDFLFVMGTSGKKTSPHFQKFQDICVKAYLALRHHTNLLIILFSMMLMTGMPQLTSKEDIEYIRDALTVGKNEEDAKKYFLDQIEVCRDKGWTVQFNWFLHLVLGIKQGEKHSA
Sequence of ROCK2 (O75116 whole entry): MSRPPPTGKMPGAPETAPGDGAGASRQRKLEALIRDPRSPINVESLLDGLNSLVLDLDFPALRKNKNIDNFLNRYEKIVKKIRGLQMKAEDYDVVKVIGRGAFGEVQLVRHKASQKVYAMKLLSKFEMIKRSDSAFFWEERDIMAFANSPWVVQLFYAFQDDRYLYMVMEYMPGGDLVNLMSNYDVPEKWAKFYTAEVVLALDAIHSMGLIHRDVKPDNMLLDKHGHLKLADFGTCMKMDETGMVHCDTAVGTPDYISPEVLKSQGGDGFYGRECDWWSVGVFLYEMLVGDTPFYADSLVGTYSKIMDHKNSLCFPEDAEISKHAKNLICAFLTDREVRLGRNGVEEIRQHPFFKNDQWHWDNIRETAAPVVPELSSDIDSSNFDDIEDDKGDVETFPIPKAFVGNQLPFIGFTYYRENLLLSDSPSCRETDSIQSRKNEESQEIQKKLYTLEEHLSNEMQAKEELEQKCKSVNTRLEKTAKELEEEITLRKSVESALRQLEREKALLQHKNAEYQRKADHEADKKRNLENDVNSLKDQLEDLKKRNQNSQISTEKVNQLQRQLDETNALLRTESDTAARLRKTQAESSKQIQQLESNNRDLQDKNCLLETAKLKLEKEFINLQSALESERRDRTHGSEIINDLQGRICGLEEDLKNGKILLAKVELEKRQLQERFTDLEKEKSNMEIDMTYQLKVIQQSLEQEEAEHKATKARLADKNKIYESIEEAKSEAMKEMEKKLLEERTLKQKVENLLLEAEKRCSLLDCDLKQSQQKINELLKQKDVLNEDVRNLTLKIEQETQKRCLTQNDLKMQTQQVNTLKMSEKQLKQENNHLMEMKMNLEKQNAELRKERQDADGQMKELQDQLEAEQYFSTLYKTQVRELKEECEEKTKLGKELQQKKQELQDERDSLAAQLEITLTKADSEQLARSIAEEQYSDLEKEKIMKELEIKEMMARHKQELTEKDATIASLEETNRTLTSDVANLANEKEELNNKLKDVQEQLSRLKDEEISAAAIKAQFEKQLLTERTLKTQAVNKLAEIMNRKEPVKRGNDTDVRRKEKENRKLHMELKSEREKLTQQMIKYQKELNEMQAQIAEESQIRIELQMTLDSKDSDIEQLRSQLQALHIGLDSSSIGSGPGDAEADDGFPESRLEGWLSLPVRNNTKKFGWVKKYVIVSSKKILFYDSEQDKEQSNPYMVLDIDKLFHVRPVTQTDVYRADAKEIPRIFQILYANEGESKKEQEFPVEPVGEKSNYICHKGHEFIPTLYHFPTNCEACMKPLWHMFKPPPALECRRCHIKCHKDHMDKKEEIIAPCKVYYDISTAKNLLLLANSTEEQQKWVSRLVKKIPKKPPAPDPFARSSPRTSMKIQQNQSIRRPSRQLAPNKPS
T6 sequence (Q15349 415-672 limits assumed): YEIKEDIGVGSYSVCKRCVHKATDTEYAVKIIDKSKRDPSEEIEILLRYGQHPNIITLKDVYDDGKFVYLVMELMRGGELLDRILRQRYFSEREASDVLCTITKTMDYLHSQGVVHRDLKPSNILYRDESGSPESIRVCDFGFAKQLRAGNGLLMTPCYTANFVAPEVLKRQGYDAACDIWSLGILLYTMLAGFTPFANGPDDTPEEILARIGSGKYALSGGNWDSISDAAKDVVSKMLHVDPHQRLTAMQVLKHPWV
Sequence of LYN (P07948 whole entry): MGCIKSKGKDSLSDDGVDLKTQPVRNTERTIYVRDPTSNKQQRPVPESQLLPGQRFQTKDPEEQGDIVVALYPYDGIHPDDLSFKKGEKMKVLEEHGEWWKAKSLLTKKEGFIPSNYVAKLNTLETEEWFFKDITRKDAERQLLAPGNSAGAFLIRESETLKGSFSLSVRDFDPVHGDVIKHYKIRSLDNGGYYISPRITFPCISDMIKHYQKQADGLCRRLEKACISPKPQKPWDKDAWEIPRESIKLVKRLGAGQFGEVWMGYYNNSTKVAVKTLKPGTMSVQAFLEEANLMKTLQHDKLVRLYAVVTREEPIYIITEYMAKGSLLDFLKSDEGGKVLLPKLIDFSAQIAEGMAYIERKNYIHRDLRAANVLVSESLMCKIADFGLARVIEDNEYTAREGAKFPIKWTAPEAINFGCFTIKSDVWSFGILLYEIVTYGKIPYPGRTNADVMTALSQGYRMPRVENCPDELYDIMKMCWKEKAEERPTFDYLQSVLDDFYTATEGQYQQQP
T7 sequence (Q9BYT3 whole entry): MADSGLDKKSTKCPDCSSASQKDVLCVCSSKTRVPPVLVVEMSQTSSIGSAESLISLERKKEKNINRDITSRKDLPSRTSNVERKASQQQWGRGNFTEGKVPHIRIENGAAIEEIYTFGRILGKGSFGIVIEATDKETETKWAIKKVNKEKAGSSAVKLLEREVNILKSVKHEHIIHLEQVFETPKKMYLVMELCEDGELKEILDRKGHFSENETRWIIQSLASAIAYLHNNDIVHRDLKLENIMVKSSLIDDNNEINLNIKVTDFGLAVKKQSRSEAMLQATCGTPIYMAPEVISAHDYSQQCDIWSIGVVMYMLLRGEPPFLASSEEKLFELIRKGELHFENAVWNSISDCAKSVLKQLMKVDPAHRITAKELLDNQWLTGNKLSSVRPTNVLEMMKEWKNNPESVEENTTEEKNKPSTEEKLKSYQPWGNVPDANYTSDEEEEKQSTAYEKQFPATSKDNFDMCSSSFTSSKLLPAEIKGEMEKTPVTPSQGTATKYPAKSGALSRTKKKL
T3 sequence (P10721 544-976 limits assumed): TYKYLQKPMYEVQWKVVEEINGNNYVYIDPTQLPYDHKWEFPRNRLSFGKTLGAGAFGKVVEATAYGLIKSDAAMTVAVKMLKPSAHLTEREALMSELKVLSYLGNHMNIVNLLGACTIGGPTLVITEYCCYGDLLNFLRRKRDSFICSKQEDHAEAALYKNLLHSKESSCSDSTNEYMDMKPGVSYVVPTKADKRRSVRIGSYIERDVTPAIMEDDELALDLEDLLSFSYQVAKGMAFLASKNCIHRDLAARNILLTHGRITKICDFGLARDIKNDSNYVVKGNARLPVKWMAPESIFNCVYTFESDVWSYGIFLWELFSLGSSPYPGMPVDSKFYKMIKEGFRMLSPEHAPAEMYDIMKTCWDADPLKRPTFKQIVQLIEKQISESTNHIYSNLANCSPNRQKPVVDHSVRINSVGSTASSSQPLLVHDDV

For `CNc1c(-c2ccc(C(=O)N3CCC(N4CCOCC4)CC3)cc2)cnc2[nH]cc(Cl)c12` [Compound 96, (4-(3-chloro-4-(methylamino)-1H-pyrrolo[2,3-b]pyridin-5-yl)phenyl)(4-morpholinopiperidin-1-yl)methanone], the remaining binding at 1 µM at AKT3 came out at 100%; on CSNK1G2, 93%; on FLT3(N841I), 14%; on KIT-autoinhibited, 64%; at LYN, 100%; at MARK3, 84%. Besides, the remaining binding at 1 µM on PIK3CG stood at 100%; at ROCK2, 1.4%; in assay [1], 100%; in assay [2], 78%; at STK33 it was 100%; on TGFBR1, 56%. Moreover, at WNK4, the remaining binding at 1 µM came out at 84%.

Take `O=C(c1ccc(-c2cnc3[nH]cc(Cl)c3c2NC2CCCC2)cc1)N1CCC(N2CCOCC2)CC1` [Compound 101, (4-(3-chloro-4-(cyclopentylamino)-1H-pyrrolo[2,3-b]pyridin-5-yl)phenyl)(4-morpholinopiperidin-1-yl)methanone]: the remaining binding at 1 µM was 99% at AKT3; 73% on CSNK1G2; 2.6% on FLT3(N841I); 100% at KIT-autoinhibited; 100% on LYN; 89% at MARK3. Besides, the remaining binding at 1 µM on PIK3CG is 95%; at ROCK2, 81%; in assay [1], 84%; in assay [2] it was 77%; on STK33, 100%; at TGFBR1, 100%. At WNK4, the remaining binding at 1 µM was 100%.

In the case of `CNc1c(-c2cnn([C@H]3CCN(C(C)=O)C[C@@H]3F)c2)cnc2[nH]cc(Cl)c12` [Compound 77, 1-((3S,4S)-4-(4-(3-chloro-4-(methylamino)-1H-pyrrolo[2,3-b]pyridin-5-yl)-1H-pyrazol-1-yl)-3-fluoropiperidin-1-yl)ethan-1-one], the remaining binding at 1 µM at AKT3 was found to be 95%; on CSNK1G2, 81%; on FLT3(N841I) it was 1%; on KIT-autoinhibited it was 23%; at LYN, 99%; on MARK3 it was 82%. For the same molecule, the remaining binding at 1 µM at PIK3CG stood at 99%; on ROCK2, 8.9%; in [1], 97%; in assay [2], 100%; on STK33 it was 100%; on TGFBR1, 60%. Moreover, the remaining binding at 1 µM on WNK4 is 77%.
